Experimental data published in patent US7396837B2, “Antitumoral analogs of lamellarins” (Pharma Mar, S.A.U., priority 2002, dated 2008).
Like-named read-outs stand apart in the source and are kept apart here.

Columns and labels:
DU-145 = experiment: SRB colorimetric cell growth inhibition assay, DU-145; type: cell-based; conditions: Homo sapiens; for GI50: GI=growth inhibition, read-out: GI50 DU-145; for CC50: read-out: LC50 DU-145; for IC (TGI): total growth inhibition (cytostatic effect), read-out: TGI DU-145
Method in brief: (§1)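 Quantitation uses the sulforhodamine B reaction on cells exposed to sample for the whole assay period; results (mean ± SD, n = 3 wells) yield GI, TGI and LC.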

IGROV-ET = experiment: SRB colorimetric cell growth inhibition assay, IGROV-ET (ET-743 resistant); type: cell-based; conditions: Homo sapiens, IGROV-ET; for GI50: GI=growth inhibition, read-out: GI50 IGROV-ET; for CC50: read-out: LC50 IGROV-ET; for IC (TGI): total growth inhibition (cytostatic effect), read-out: TGI IGROV-ET
Method in brief: as §1

SK-BR-3 = experiment: SRB colorimetric cell growth inhibition assay, SK-BR-3; type: cell-based; conditions: Homo sapiens; for GI50: GI=growth inhibition, read-out: GI50 SK-BR-3; for CC50: read-out: LC50 SK-BR-3; for IC (TGI): total growth inhibition (cytostatic effect), read-out: TGI SK-BR-3
Method in brief: as §1

LoVo = experiment: SRB colorimetric cell growth inhibition assay, LoVo; type: cell-based; conditions: Homo sapiens; for GI50: GI=growth inhibition, read-out: GI50 LOVO; for CC50: read-out: LC50 LOVO; for IC (TGI): read-out: TGI LOVO
Method in brief: as §1

HT-29 = experiment: SRB colorimetric cell growth inhibition assay, HT-29; type: cell-based; conditions: Homo sapiens; for GI50: GI=growth inhibition, read-out: GI50 HT-29; for CC50: read-out: LC50 HT-29; for IC (TGI): read-out: TGI HT-29
Method in brief: as §1

LNCaP = experiment: SRB colorimetric cell growth inhibition assay, LNCaP; type: cell-based; conditions: Homo sapiens, LNCaP, LN-caP; for GI50: GI=growth inhibition, read-out: GI50 LN-caP; for CC50: read-out: LC50 LN-caP; for IC (TGI): total growth inhibition (cytostatic effect), read-out: TGI LN-caP
Method in brief: as §1

PANC-1 = experiment: SRB colorimetric cell growth inhibition assay, PANC-1; type: cell-based; conditions: Homo sapiens; for GI50: GI=growth inhibition, read-out: GI50 PANC-1; for CC50: read-out: LC50 PANC-1; for IC (TGI): read-out: TGI PANC-1
Method in brief: as §1

SK-MEL-28 = experiment: SRB colorimetric cell growth inhibition assay, SK-MEL-28; type: cell-based; conditions: Homo sapiens, SK-MEL-28, MEL-28; for GI50: GI=growth inhibition, read-out: GI50 MEL-28; for CC50: read-out: LC50 MEL-28; for IC (TGI): total growth inhibition (cytostatic effect), read-out: TGI MEL-28
Method in brief: as §1

human topoisomerase I = target: T1, human topoisomerase I (Homo sapiens, UniProt P11387); experiment: Topoisomerase I DNA relaxation assay (supercoiled plasmid DNA); type: biochemical; conditions: supercoiled plasmid DNA, each compound tested at 1 μM, agarose gel with ethidium bromide
T1 sequence (P11387 1-765): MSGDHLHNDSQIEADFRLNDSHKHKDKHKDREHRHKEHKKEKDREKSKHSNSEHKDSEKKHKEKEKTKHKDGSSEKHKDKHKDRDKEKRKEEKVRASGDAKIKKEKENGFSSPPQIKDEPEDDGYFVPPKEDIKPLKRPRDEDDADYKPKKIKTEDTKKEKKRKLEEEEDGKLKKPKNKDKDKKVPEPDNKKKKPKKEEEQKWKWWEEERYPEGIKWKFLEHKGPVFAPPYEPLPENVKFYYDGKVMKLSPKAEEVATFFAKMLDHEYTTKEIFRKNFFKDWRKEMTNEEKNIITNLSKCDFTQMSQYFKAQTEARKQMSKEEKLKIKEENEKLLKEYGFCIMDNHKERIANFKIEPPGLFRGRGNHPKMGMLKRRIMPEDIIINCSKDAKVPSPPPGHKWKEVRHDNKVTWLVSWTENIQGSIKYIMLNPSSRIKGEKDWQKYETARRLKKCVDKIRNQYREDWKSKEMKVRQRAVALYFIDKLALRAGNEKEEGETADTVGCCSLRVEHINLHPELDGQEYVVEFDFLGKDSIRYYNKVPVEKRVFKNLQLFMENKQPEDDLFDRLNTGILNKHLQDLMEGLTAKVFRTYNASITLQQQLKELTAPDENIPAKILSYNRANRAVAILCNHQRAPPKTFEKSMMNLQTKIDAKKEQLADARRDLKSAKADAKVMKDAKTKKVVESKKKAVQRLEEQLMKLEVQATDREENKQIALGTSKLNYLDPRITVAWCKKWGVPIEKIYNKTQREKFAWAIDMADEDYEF
Method in brief: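 Test compounds (1 μM each) were present during topoisomerase I relaxation of supercoiled plasmid DNA. Relaxation was assessed on ethidium bromide-stained agarose gels.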

K-562 = experiment: SRB colorimetric cell growth inhibition assay, K-562; type: cell-based; conditions: Homo sapiens, K562, K-562; for GI50: GI=growth inhibition, read-out: GI50 K-562; for CC50: read-out: LC50 K-562; for IC (TGI): read-out: TGI K-562
Method in brief: as §1

A-549 = experiment: SRB colorimetric cell growth inhibition assay, A-549; type: cell-based; conditions: Homo sapiens, A549, A-549; for GI50: GI=growth inhibition, read-out: GI50 A-549; for CC50: read-out: LC50 A-549; for IC (TGI): read-out: TGI A-549
Method in brief: as §1

LoVo-Dox = experiment: SRB colorimetric cell growth inhibition assay, LoVo-Dox (MDR); type: cell-based; conditions: Homo sapiens, LOVO-DOX; for GI50: GI=growth inhibition, read-out: GI50 LOVO-DOX; for CC50: read-out: LC50 LOVO-DOX; for IC (TGI): read-out: TGI LOVO-DOX
Method in brief: as §1

IGROV = experiment: SRB colorimetric cell growth inhibition assay, IGROV; type: cell-based
Method in brief: as §1

[1] = cell killing (cytotoxic effect)
[2] = total growth inhibition (cytostatic effect)
[3] = LC=cell killing (cytotoxic effect)
[4] = TGI=total growth inhibition (cytostatic effect)

COc1cc(-c2c3c4cc(OC)c(OC(=O)[C@H](N)C(C)C)cc4oc(=O)c3n3ccc4cc(OC(=O)[C@H](N)C(C)C)c(OC)cc4c23)ccc1OC(=O)[C@H](N)C(C)C [Compound 17]
GI50 (DU-145; DU-145, DU-145): 48.7 nM | CC50 (DU-145; DU-145, DU-145, cell killing (cytotoxic effect)): 2.3 µM | IC (TGI) (DU-145; DU-145, DU-145): 0.228 µM | GI50 (IGROV-ET): 162 nM | CC50 (IGROV-ET; [1]): 8.78 µM | IC (TGI) (IGROV-ET): 0.544 µM | GI50 (SK-BR-3; SK-BR-3, SK-BR-3): 80.3 nM | CC50 (SK-BR-3; SK-BR-3, SK-BR-3, cell killing (cytotoxic effect)): 1.22 µM | IC (TGI) (SK-BR-3; SK-BR-3, SK-BR-3): 0.286 µM | GI50 (LoVo; LoVo): 0.216 µM | CC50 (LoVo; LoVo, cell killing (cytotoxic effect)): 0.816 µM | IC (TGI) (LoVo; LoVo, total growth inhibition (cytostatic effect)): 0.42 µM | GI50 (HT-29; HT-29, HT-29): 342 nM | CC50 (HT-29; HT-29, HT-29, cell killing (cytotoxic effect)): 8.78 µM | IC (TGI) (HT-29; HT-29, HT-29, total growth inhibition (cytostatic effect)): 0.686 µM | GI50 (LNCaP): 132 nM | CC50 (LNCaP; [1]): 599 nM | IC (TGI) (LNCaP): 0.281 µM | GI50 (PANC-1; PANC-1, PANC-1): 206 nM | CC50 (PANC-1; PANC-1, PANC-1, cell killing (cytotoxic effect)): 8.53 µM | IC (TGI) (PANC-1; PANC-1, PANC-1, total growth inhibition (cytostatic effect)): 1.52 µM | GI50 (SK-MEL-28): 51.8 nM | CC50 (SK-MEL-28; [1]): 0.766 µM | IC (TGI) (SK-MEL-28): 0.171 µM | stimulation of DNA cleavage by topoisomerase I / inhibition of topoisomerase I (nicked DNA band) in DNA relaxation assay (human topoisomerase I): stimulated DNA cleavage by the enzyme | GI50 (K-562): 53.6 nM | CC50 (K-562; [1]): 2.5 µM | IC (TGI) (K-562; [2]): 0.277 µM | GI50 (A-549): 207 nM | CC50 (A-549; [1]): 8.48 µM | IC (TGI) (A-549; [2]): 0.663 µM | GI50 (LoVo-Dox): 0.384 µM | CC50 (LoVo-Dox; [1]): 5.29 µM | IC (TGI) (LoVo-Dox; [2]): 1.33 µM | GI50 (IGROV; Homo sapiens, IGROV; GI=growth inhibition; read-out: GI50 IGROV): 105 nM | CC50 (IGROV; Homo sapiens, IGROV; cell killing (cytotoxic effect); read-out: LC50 IGROV): 4.93 µM | IC (TGI) (IGROV; Homo sapiens, IGROV; total growth inhibition (cytostatic effect); read-out: TGI IGROV): 0.405 µM

COc1cc(-c2c3c4cc(OC)c(OC(=O)[C@@H](NC(=O)OC(C)(C)C)C(C)C)cc4oc(=O)c3n3ccc4cc(OC(=O)[C@@H](NC(=O)OC(C)(C)C)C(C)C)c(OC)cc4c23)ccc1OC(=O)[C@@H](NC(=O)OC(C)(C)C)C(C)C [Compound 38]
CC50 (DU-145; DU-145, DU-145, LC=cell killing (cytotoxic effect)): 9.11 µM | GI50 (DU-145; DU-145): 51.2 nM | IC (TGI) (DU-145; DU-145): 9.11 µM | GI50 (IGROV-ET): 1290 nM | CC50 (IGROV-ET; [3]): 9.11 µM | IC (TGI) (IGROV-ET): 4.51 µM | CC50 (SK-BR-3; SK-BR-3, SK-BR-3, LC=cell killing (cytotoxic effect)): 9.11 µM | GI50 (SK-BR-3; SK-BR-3): 448 nM | IC (TGI) (SK-BR-3; SK-BR-3): 4.08 µM | CC50 (LoVo; LoVo, LC=cell killing (cytotoxic effect)): 9.11 µM | GI50 (LoVo; LOVO): 9.11 µM | IC (TGI) (LoVo; LOVO, TGI=total growth inhibition (cytostatic effect)): 9.11 µM | CC50 (HT-29; HT-29, HT-29, LC=cell killing (cytotoxic effect)): 9.11 µM | GI50 (HT-29; HT-29): 32.4 nM | IC (TGI) (HT-29; HT-29, TGI=total growth inhibition (cytostatic effect)): 0.0911 µM | GI50 (LNCaP): 152 nM | CC50 (LNCaP; [3]): 3900 nM | IC (TGI) (LNCaP): 0.509 µM | CC50 (PANC-1; PANC-1, PANC-1, LC=cell killing (cytotoxic effect)): 9.11 µM | IC (TGI) (PANC-1; PANC-1, PANC-1, TGI=total growth inhibition (cytostatic effect)): 9.11 µM | GI50 (PANC-1; PANC-1): 499 nM | GI50 (SK-MEL-28): 165 nM | CC50 (SK-MEL-28; [3]): 9.11 µM | IC (TGI) (SK-MEL-28): 0.52 µM | stimulation of DNA cleavage by topoisomerase I / inhibition of topoisomerase I (nicked DNA band) in DNA relaxation assay (human topoisomerase I): No effect | GI50 (K-562): 41.3 nM | CC50 (K-562; [3]): 9.11 µM | IC (TGI) (K-562; [4]): 1.15 µM | GI50 (A-549): 1340 nM | CC50 (A-549; [3]): 9.11 µM | IC (TGI) (A-549; [4]): 4.78 µM | GI50 (LoVo-Dox): 9.11 µM | CC50 (LoVo-Dox; [3]): 9.11 µM | IC (TGI) (LoVo-Dox; [4]): 9.11 µM | CC50 (IGROV; Homo sapiens, IGROV; LC=cell killing (cytotoxic effect); read-out: LC50 IGROV): 9.11 µM | GI50 (IGROV; Homo sapiens; IGROV; GI=growth inhibition; read-out: GI50 IGROV): 244 nM | IC (TGI) (IGROV; Homo sapiens; IGROV; total growth inhibition (cytostatic effect); read-out: TGI IGROV): 1.07 µM
